Assay results reported in patent publication US10071103B2, “Treatments for resistant acne” (VYOME BIOSCIENCES PVT. LTD., priority 2014, dated 2018).
≈ marks a conversion by molar mass, not a printed value.

Tests used:
IL-8 = assay: P. acnes-induced IL-8 release in THP-1 cells (ELISA); type: cell-based; details: THP-1 cells, Table 71
Method: (§1) Method: Preparation of Stimulant for Inflammation: P. acnes culture suspension was prepared in PBS and the cell number in the suspension was adjusted to approximately 5×10^8 CFU/ml by measuring the cell density using a Densimat. The bacterial suspension was then heat killed at 80° C. for 30 min and stored at −80° C. until further use.
(§2) Cells were seeded in a 96-well format (2×10^5 THP-1 cells per well) in media containing 10% FBS. The cells were stimulated to induce inflammatory cytokines using 3 McFarland equivalent heat-killed P. acnes. Cells in control wells were treated with PBS. One hour after induction with P. acnes, test agents were added to the induced cells at appropriate concentrations to be tested (compound 91 at 25 μg/ml). The plates were incubated at 37° C. for 24 hours. After 24 h, the plates were centrifuged to pellet the cells and the supernatants were collected. The cell culture supernatants thus obtained were analyzed for levels of cytokines (IL-1α, IL-1β, IL-6 and IL-8) by ELISA using R&D Systems kits for individual cytokines following the manufacturer's instructions.
as §1, with “Preparation” for “Method: Preparation”, “stimulant” for “Stimulant”, “inflammation:” for “Inflammation:”
(§3) Cells were seeded in a 96-well format (2×10^5 THP-1 cells per well) in media containing 10% FBS. The cells were stimulated to induce inflammatory cytokines using 3 McFarland equivalent heat-killed P. acnes. Cells in control wells were treated with PBS. One hour after induction with P. acnes, test agents were added to the induced cells at appropriate concentrations (Besifloxacin at 10 and 30 μg/ml; Adapalene at 0.04 and 0.4 μg/ml). The plates were incubated at 37° C. for 24 hours. After 24 h, the plates were centrifuged to pellet the cells and the supernatants were collected. The cell culture supernatants thus obtained were analyzed for cytokine levels (IL-6 and IL-8) by ELISA using R&D Systems kits for individual cytokines following the manufacturer's instructions.

IL-6 = assay: P. acnes-induced IL-6 release in THP-1 cells (ELISA); type: cell-based; details: for Expression of Cytokines IL-6 (pg/ml) Mean: THP-1 cells, Table 71; for Effect on P. acnes-induced IL-6 levels (in words): Example 61, besifloxacin 10, 30 μg/ml, adapalene 0.04, 0.4 μg/ml
Method: as §1, §2
as §1, with “Preparation” for “Method: Preparation”, “stimulant” for “Stimulant”, “inflammation:” for “Inflammation:”
as §3

P. acnes MTCC 1951 [1] = assay: MIC by micro broth dilution (Alamar blue), clindamycin-susceptible P. acnes; type: cell-based, Propionibacterium acnes; details: Cutibacterium acnes, MTCC1951; Table 7; against P. acnes; read-out: MIC
Method: The plates were incubated at 37° C. for 48 h under anaerobic condition for P. acnes and 37° C. for 24 h for S. aureus The plates were read under Bio-Rad plate reader at 595 nm for optical density to generate the dose-response curves. The MIC of the test compound was recorded by addition of Alamar blue dye.
P. acnes (MTCC 3297, MTCC 1951& CCARM 9010) are cultured in Brain Heart Infusion (BHI) Broth at 37° C. for 48-72 h under anaerobic condition. The test compounds/formulations are initially diluted with suitable solvent and further diluted with BHI broth to get the required concentrations. Samples (100 μl) of different concentrations (prepared by serial dilution) are added to 96-well plate. To the wells, 100 μl of P. acnes BHI broth culture is added [culture turbidity adjusted against 0.5 McFarland standard (approx 1.5×10^8), and further diluted 100-fold with sterile BHI broth]. In addition Growth Control and Sterility Control are created using 100 μl each of P. acnes BHI broth culture and plain BHI broth, respectively.
Plates are incubated at 37° C. for 48-72 hrs under anaerobic condition. The plate is read under Bio-Rad plate reader @ 595 nm for optical density to generate the dose-response curves. The MIC of the test compound is recorded by addition of Alamar blue dye.
BHI broth and BHI agar media were prepared as per the manufacturer's instruction and autoclaved at 121° C. for 15 minutes. […] For MIC determination testing, gels are dissolved in the solvent and further diluted with BHI broth. Then, 96 wells plate are filled with 100 μl of BHI broth containing drug with different concentration to get the final concentrations of 0.06, 0.13, 0.25, 0.5, 1 and 2 μg/ml in different lanes (lane 1 to lane 6). Remaining lanes of the 96 well plate are used as growth control and sterility control. Finally, P. acnes culture suspension (approx 1.5×10^6) is added in all the wells except sterility control wells and plate is incubated at 37° C. for 48-72 h under anaerobic condition. At the end of 72 h, Alamar blue solution (20 μl) is added into the wells and incubated at 37° C. for 2 h. Plate is visualized for bacterial inhibitions and MIC values of the tested samples are determined. […]

P. acnes MTCC 1951 [2] = type: cell-based, Propionibacterium acnes
Method: 3 to 4 Petri plates containing 48 h P. acnes culture was suspended in sterile Phosphate buffer saline, PBS (pH 7.2) and turbidity was adjusted to optical density of 1 at 600 nm (10^9 cells/ml). 50 ml of this culture suspension was centrifuged at 4000 rpm for 40 min. The supernatant was discarded and pellet resuspended in 250 μl of sterile PBS. 50 μl of these cell suspensions (10^10 cells) was spread over the plates containing various concentrations of antibiotics (around MIC range). Plates were incubated at 37° C. for 48 h and the lowest concentration of the drug that allowed no growth was taken as its MPC.

[3] = system: P. acnes clinical isolates; assay: MIC of P. acnes isolated from acne patients (clinical isolates);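 also: anaerobic 96-well plate assay at 37 °C over 72 h, with Alamar blue dye as read-out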
Method: P. acnes were cultured in Brain Heart Infusion Agar (BHIA) at 37° C. for 48 hours under anaerobic condition. […] For bacterial inoculum, P. acnes culture turbidity was adjusted to 0.5 McFarland standard (approximately 1.5×10^8) and further diluted (100 times with sterile BHI broth). Diluted P. acnes suspension (100 μl) was added to each well except sterility control wells (column 12 of 96 well plate). Inoculated plates were incubated at 37° C. for 72 hours under anaerobic condition. After incubation, MIC was determined by adding Alamar blue dye.

[4] = Cells + P. acnes + Adapalene 0.04 μg/ml
[5] = Cells + P. acnes + Adapalene 0.4 μg/ml
[6] = Cutibacterium acnes, P. acnes strain V5-2, clinical isolate susceptible to clindamycin and erythromycin
[7] = Cutibacterium acnes, P. acnes strain V5-5, clinical isolate susceptible to clindamycin and erythromycin
[8] = Cutibacterium acnes, P. acnes strain V5-7, clinical isolate susceptible to clindamycin and erythromycin
[9] = Cutibacterium acnes, P. acnes strain V6-5, clinical isolate susceptible to clindamycin and erythromycin
[10] = Cutibacterium acnes, P. acnes strain V6-6, clinical isolate susceptible to clindamycin and erythromycin
[11] = Cutibacterium acnes, P. acnes strain V6-7, clinical isolate susceptible to clindamycin and erythromycin
[12] = Cutibacterium acnes, P. acnes strain V7-3, clinical isolate susceptible to clindamycin and erythromycin
[13] = Cutibacterium acnes, P. acnes strain V7-4, clinical isolate susceptible to clindamycin and erythromycin
[14] = Cutibacterium acnes, P. acnes strain V7-14, clinical isolate susceptible to clindamycin and erythromycin
[15] = Cutibacterium acnes, P. acnes strain V9-6E, clinical isolate susceptible to clindamycin and erythromycin
[16] = Cutibacterium acnes, P. acnes strain V13-3E, clinical isolate susceptible to clindamycin and erythromycin
[17] = Cutibacterium acnes, P. acnes strain V14-2E, clinical isolate susceptible to clindamycin and erythromycin
[18] = Cutibacterium acnes, P. acnes strain V17-3E, clinical isolate susceptible to clindamycin and erythromycin

Row | SMILES | Effect on P. acnes-induced IL-6 levels (in words) (IL-6) | Susceptibility of P. acnes isolated from volunteers V3 and V21 (in words) [3] | Susceptibility of clindamycin-nonresponder clinical isolates (in words) [3] | Susceptibility of clinical isolates susceptible to clindamycin and erythromycin (in words) [3] | MIC [3, 6] [µg/mL] | MIC [3, 7] [µg/mL] | MIC [3, 8] [µg/mL] | MIC [3, 9] [µg/mL] | MIC [3, 10] [µg/mL] | MIC [3, 11] [µg/mL] | MIC [3, 12] [µg/mL] | MIC [3, 13] [µg/mL] | MIC [3, 14] [µg/mL] | MIC [3, 15] [µg/mL] | MIC [3, 16] [µg/mL] | MIC [3, 17] [µg/mL] | MIC [3, 18] [µg/mL] | other results
1 | COc1ccc(-c2ccc3cc(C(=O)O)ccc3c2)cc1C12CC3CC(CC(C3)C1)C2 [Adapalene, adapalene] | impart individual anti-inflammatory effects |  |  |  |  |  |  |  |  |  |  |  |  |  |  |  |  | Expression of Cytokines IL-8 (pg/ml) Mean (IL-8; [4]): 2536.76 pg/mL; Expression of Cytokines IL-8 (pg/ml) Mean (IL-8; [5]): 2579.87 pg/mL; Expression of Cytokines IL-6 (pg/ml) Mean (IL-6; [4]): 308.82 pg/mL; Expression of Cytokines IL-6 (pg/ml) Mean (IL-6; [5]): 162.76 pg/mL
2 | N[C@@H]1CCCCN(c2c(F)cc3c(=O)c(C(=O)O)cn(C4CC4)c3c2Cl)C1 [Besifloxacin] | concentration-dependent inhibitory effect | susceptible | susceptible | susceptible | 0.5 | 0.5 | 0.5 | 0.5 | 0.5 | 0.5 | 0.5 | 0.5 | 0.5 | 0.5 | 0.5 | 0.5 | 0.5 | MIC (P. acnes MTCC 1951 [1]): 0.5 µg/mL (≈ 1.27 µM); MPC (P. acnes MTCC 1951 [2]; P. acnes, 10^10 cells inoculum): 2 µg/mL; MPC/MIC (P. acnes MTCC 1951 [2]; ratio against P. acnes): 4; MIC ([3]; Cutibacterium acnes): 0.25 µg/mL; MIC ([3]; P. acnes strain V2-9, clinical isolate susceptible to clindamycin and erythromycin): 0.25 µg/mL; MIC ([3]; P. acnes strain V3-9, clinical isolate susceptible to clindamycin and erythromycin): 0.25 µg/mL; MIC ([3]; P. acnes strain V3-10, clinical isolate susceptible to clindamycin and erythromycin): 0.25 µg/mL; MIC ([3]; P. acnes strain V4-6, clinical isolate susceptible to clindamycin and erythromycin): 0.25 µg/mL; MIC ([3]; P. acnes strain V4-8, clinical isolate susceptible to clindamycin and erythromycin): 0.25 µg/mL; MIC ([3]; P. acnes strain V4-13, clinical isolate susceptible to clindamycin and erythromycin): 0.25 µg/mL; MIC ([3]; P. acnes strain V12-2E, clinical isolate susceptible to clindamycin and erythromycin): 0.25 µg/mL; MIC ([3]; P. acnes strain V15B-1E, clinical isolate susceptible to clindamycin and erythromycin): 0.25 µg/mL; MIC ([3]; P. acnes strain V18-4E, clinical isolate susceptible to clindamycin and erythromycin): 0.25 µg/mL; MIC ([3]; P. acnes strain V19-2E, clinical isolate susceptible to clindamycin and erythromycin): 0.25 µg/mL; MIC ([3]; P. acnes strain V20-5E, clinical isolate susceptible to clindamycin and erythromycin): 0.25 µg/mL
3 | CC[C@H]1OC(=O)[C@H](C)[C@@H](O[C@H]2C[C@@](C)(OC)[C@@H](O)[C@H](C)O2)[C@H](C)[C@@H](O[C@@H]2O[C@H](C)C[C@H](N(C)C)[C@H]2O)[C@](C)(O)C[C@@H](C)C(=O)[C@H](C)[C@@H](O)[C@]1(C)O [Erythromycin, erythromycin] |  | resistance | wide variation in sensitivity | susceptible | < 0.03 | < 0.03 | < 0.03 | < 0.03 | < 0.03 | < 0.03 | < 0.03 | < 0.03 | < 0.03 | < 0.09 | < 0.09 | < 0.09 | 0.78 | MIC ([3]; Cutibacterium acnes, P. acnes strain V2-9, clinical isolate susceptible to clindamycin and erythromycin): < 0.03 µg/mL; MIC ([3]; Cutibacterium acnes, P. acnes strain V2-10, clinical isolate susceptible to clindamycin and erythromycin): < 0.03 µg/mL; MIC ([3]; Cutibacterium acnes, P. acnes strain V3-9, clinical isolate susceptible to clindamycin and erythromycin): < 0.03 µg/mL; MIC ([3]; Cutibacterium acnes, P. acnes strain V3-10, clinical isolate susceptible to clindamycin and erythromycin): < 0.03 µg/mL; MIC ([3]; Cutibacterium acnes, P. acnes strain V4-6, clinical isolate susceptible to clindamycin and erythromycin): < 0.03 µg/mL; MIC ([3]; Cutibacterium acnes, P. acnes strain V4-8, clinical isolate susceptible to clindamycin and erythromycin): < 0.03 µg/mL; MIC ([3]; Cutibacterium acnes, P. acnes strain V4-13, clinical isolate susceptible to clindamycin and erythromycin): < 0.03 µg/mL; MIC ([3]; Cutibacterium acnes, P. acnes strain V12-2E, clinical isolate susceptible to clindamycin and erythromycin): < 0.09 µg/mL; MIC ([3]; Cutibacterium acnes, P. acnes strain V15B-1E, clinical isolate susceptible to clindamycin and erythromycin): 0.19 µg/mL; MIC ([3]; Cutibacterium acnes, P. acnes strain V18-4E, clinical isolate susceptible to clindamycin and erythromycin): 0.19 µg/mL; MIC ([3]; Cutibacterium acnes, P. acnes strain V19-2E, clinical isolate susceptible to clindamycin and erythromycin): < 0.09 µg/mL; MIC ([3]; Cutibacterium acnes, P. acnes strain V20-5E, clinical isolate susceptible to clindamycin and erythromycin): < 0.09 µg/mL
